Here are results for 20 molecules from article PMC12250713, “Identification and Characterization of Novel Inhibitors of Human Poly(ADP-Ribose) Polymerase-1” (Molecules, 2025).

The target in one data set is T1, hPARP-1 (Homo sapiens, UniProt P09874).
T1 construct: purchased Bio-Techne (Minneapolis, MN, USA)
The experiment in a line: hPARP-1 enzyme assay (NAD+ cycling reaction, resorufin fluorescence read-out). It counts as biochemical. The following applies: for IC50: 0.1-50 µM, mean ± SD, two biological replicates; for inhibition at 10 µM: concentration of 10 µM; for decline in PARPi activity compared with compound 54: replacement of the fluoride group; for reduction in the PARPi activity compared with compound 57: modification at the thiomethyl group; for PARPi activity at the enzyme level compared to the OLP core structure phthalazin-1(2H)-one: own IC50 vs literature IC50 12 µM. As for the experimental part:
The putative PARP inhibitors, which were pre-selected in the in silico study, were subsequently evaluated by using an optimized biochemical hPARP-1 enzyme assay. The experiment was performed in black half-area 96-well plates. For the PARP reaction, 12.5 µL of PARP reaction solution were added. The solution was composed of 0.5 µg deoxyribonucleic acid (DNA) sodium salt from calf thymus, 2 U of recombinant hPARP-1, and 1 µL of the compound of interest in PARP reaction buffer (50 mM TRIS and 2 mM MgCl2 in ddH2O, pH = 8). These test compounds’ working solutions were prepared from 20 mM DMSO stock solutions and diluted using PARP reaction buffer to reach 25× of the required final concentration to be tested. […] Afterwards, 12.5 µL of NAD^+ solution were added to all wells to reach a final NAD^+ concentration of 50 nM, and to start the enzyme reaction.
Besides PARP reaction wells, NAD^+ calibration wells were included to measure the linearity of the detection of NAD^+ concentrations. In each well, 12.5 µL of NAD^+ calibration solution were added. The solution was composed of 0.5 µg deoxyribonucleic acid (DNA) sodium salt from calf thymus in PARP reaction buffer. Finally, 12.5 µL of decreasing concentrations of NAD^+ solution were added to the calibration wells (final concentrations: 50, 40, 30, 20, 10, 0 nM).
Subsequently, the assay plate including both the PARP reaction and NAD^+ calibration wells was gently shaken and incubated at 25 °C in the dark for 90 min. After incubation, 25 µL of detection solution were added to each well. […] The assay plate was again gently shaken and incubated at 25 °C in the dark for 40 min.
Following the aforementioned protocol, the compounds that were predicted by the in silico study as putative hPARP-1 inhibitors were tested at two different concentrations (1 and 10 µM). […] The IC50s were calculated by using GraphPad Prism software and a non-linear four-parametric regression function.

The subject of the next data set is MDA-MB-468 cells. The experiment in a line: cells. It counts as cell-based. The following applies: for cytotoxic activity as a monotherapy against MDA-MB-468: CV assay. As for the experimental part:
(§1) Cells were seeded in 96-well cell culture plates and were allowed to adhere for 24 h in a humidified atmosphere with 5% CO2 at 37 °C. Afterward, cells were treated with the test items at several concentrations for 72 h. […] After finalization of the intended 72 h treatment, the treatment solutions were discarded, and the cells were washed once with PBS. Subsequently, the cells were fixed by incubation in 4% (v/v) paraformaldehyde in PBS for 15 min at room temperature (RT). The fixing solution was discarded, and the cells were allowed to dry at RT for 15 min. The cells were stained with 0.1% (w/v) crystal violet in PBS for 15 min at RT, then washed with ddH2O and dried overnight at RT. […] The obtained absorbance data were normalized based on the negative and positive controls representing 100% and 0% cell viability, respectively. IC50 values were calculated by using a four-parametric non-linear regression analysis in GraphPad Prism software.
(§2) Finally, cell viability was determined by using the CV assay, and IC50 values were calculated as mentioned above.

In the next data set the test system is BT-474 cells. The experiment in a line: crystal violet (CV) cell viability assay, single and combined with TMZ. It counts as cell-based. Here is the method:
as §1, §2

The target of a further data set is T2, hPARP-1 in BT-474 cells (Homo sapiens, UniProt P09874).
T2 construct: endogenous in cells; host or cells: BT-474
T2 sequence (P09874 whole entry): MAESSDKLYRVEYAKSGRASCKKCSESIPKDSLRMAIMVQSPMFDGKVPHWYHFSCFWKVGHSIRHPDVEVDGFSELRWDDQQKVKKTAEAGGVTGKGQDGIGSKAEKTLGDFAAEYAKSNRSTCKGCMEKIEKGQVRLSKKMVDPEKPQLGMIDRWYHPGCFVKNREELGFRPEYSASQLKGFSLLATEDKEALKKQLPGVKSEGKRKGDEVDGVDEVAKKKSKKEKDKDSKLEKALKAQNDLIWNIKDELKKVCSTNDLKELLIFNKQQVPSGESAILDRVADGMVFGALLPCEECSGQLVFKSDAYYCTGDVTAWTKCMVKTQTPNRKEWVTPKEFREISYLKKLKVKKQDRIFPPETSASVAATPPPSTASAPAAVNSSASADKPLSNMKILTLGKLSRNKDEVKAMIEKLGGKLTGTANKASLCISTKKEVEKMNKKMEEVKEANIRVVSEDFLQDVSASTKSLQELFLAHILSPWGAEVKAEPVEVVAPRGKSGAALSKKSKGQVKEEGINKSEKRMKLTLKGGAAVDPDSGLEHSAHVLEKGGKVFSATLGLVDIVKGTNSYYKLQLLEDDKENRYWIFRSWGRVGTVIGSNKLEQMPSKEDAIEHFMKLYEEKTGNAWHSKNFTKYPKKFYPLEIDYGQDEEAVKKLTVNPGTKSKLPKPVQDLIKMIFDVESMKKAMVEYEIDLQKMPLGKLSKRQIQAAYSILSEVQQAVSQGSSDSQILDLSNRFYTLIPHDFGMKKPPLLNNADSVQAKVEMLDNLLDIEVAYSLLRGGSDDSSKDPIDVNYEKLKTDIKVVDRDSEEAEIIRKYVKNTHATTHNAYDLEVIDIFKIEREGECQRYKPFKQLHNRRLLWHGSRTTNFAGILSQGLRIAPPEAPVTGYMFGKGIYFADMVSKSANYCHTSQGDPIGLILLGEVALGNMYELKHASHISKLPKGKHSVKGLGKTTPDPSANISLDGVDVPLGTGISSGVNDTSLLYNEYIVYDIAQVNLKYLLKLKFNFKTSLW
The experiment in a line: fluorescence microscopy, competitive displacement of PARPi-FL. It counts as cell-based. The following applies: BT-474, 72 h with 100 µM compound 57 or 1.56 µM OLP, then 250 nM PARPi-FL 20 min. As for the experimental part:
For the determination of the interaction of the proposed PARPi and the PARP binding pocket inside the treated cells, a fluorescence microscopic inspection was performed. Using a green fluorescently labeled molecule named PARPi-FL that is characterized by the ability to occupy specifically the binding pocket of the PARP enzyme. Moreover, in case of its competitive replacement by PARPi molecules a reduction in its fluorescent signal is detectable. Thus, cells were seeded in 6-well plates and incubated in a humidified atmosphere with 5% CO2 for 24 h at 37 °C. […] Subsequently, the treatment solutions were discarded, and the cells were washed with PBS. […] Finally, cells were imaged by using the GFP channel of an EVOS™ FL Auto Imaging System (Thermo Fisher Scientific, Waltham, MA, USA).

For the next data set, the system named is 184B5 cells. The experiment in a line: crystal violet (CV) cell viability assay, single and combined with TMZ. Format: cell-based. The following applies: Homo sapiens, 184B5, 72 h; read-out: IC50 of TMZ, alone or combined. Here is the method:
as §1, §2

The subject of the next data set is HCC1937 cells. The data set is described as above. Format: cell-based. The settings on record: Homo sapiens, HCC1937, 72 h; read-out: IC50 of TMZ, alone or combined. Here is the method: as §1, §2
Another data set relates to MCF-7 cells. The description is as above. Format: cell-based. The following applies: Homo sapiens, MCF7, 72 h; read-out: IC50 of TMZ, alone or combined. Here is the method:
as §1, §2

Where “and” joins values, the source holds several entries; their conditions need not be identical. Equal entries are not always repeated. Entries after “also recorded” stand apart in the source; their conditions may differ.

T1 sequence (P09874 whole entry): as above

Take `COc1ccc(C(=O)Nc2nc3c(c(=O)[nH]2)CCCC3)cc1` [Compound 21]: on hPARP-1, the IC50 – broadly, the midpoint of a concentration-inhibition curve – stood at 14.9 ± 4.92 µM; the inhibition (usually the change of the read-out against control, counted positive when it falls) at 10 µM was above 50%; the “decline in PARPi activity compared with compound 54” value (from here on “decline … compared with compound 54”) is given as “at least three-fold”.
On to `CSc1nc2cc([N+](=O)[O-])ccc2c(=O)[nH]1` [Compound 66], for which, at hPARP-1, the “hPARP-1 inhibitor activity compared with compound 57 (SAR, in words)” value is “dramatic decrease in activity” and the IC50 was above 10 µM.
As for `COc1cccc(Nc2nc3ccccc3c(=O)[nH]2)c1` [Compound 18], at hPARP-1, the IC50 was 23.5 ± 8.74 µM and the inhibition at 10 µM is above 50%.
On to `Cc1ccc(C(=O)Nc2nc3c(c(=O)[nH]2)CCCC3)cc1` [Compound 34], for which the “decline … compared with compound 54” value on hPARP-1 was “at least three-fold”.
Consider `O=c1[nH]c(SCCC(F)=C(F)F)nc2ccccc12` [Compound 69], for which, on hPARP-1, the IC50 was above 10 µM and the “reduction in the PARPi activity compared with compound 57” value (“reduction in the PARPi activity” below) was “at least four-fold”.
Turning to `COc1ccc(NCc2nnc(O)c3ccccc23)cc1` [Compound 45], on hPARP-1, the IC50 worked out at 3.01 ± 1.19 µM and the inhibition at 10 µM is above 50%.
The like results for `O=c1[nH]nc(CNc2ccc([N+](=O)[O-])cc2)c2ccccc12` [Compound 22] were, in that order, 4.57 ± 4.89 µM and above 50%.
Take `O=C(c1cc(Cc2n[nH]c(=O)c3ccccc23)ccc1F)N1CCN(C(=O)C2CC2)CC1` [OLP, olaparib]: the “cytotoxic activity as a monotherapy against MDA-MB-468” value with MDA-MB-468 cells (72 h) was “good and selective cytotoxic activity”. For the same molecule, the “IC10 (CV cytotoxicity assay)” value in the data set on MDA-MB-468 cells (MDA-MB-468 cells, 72 h) was 1.56 µM.
Turning to `CSc1nc2ccccc2c(=O)n1C` [Compound 62], on hPARP-1, the “hPARP-1 inhibitor activity compared with compound 57 (SAR, in words)” value was “complete abolishment of hPARP-1 inhibitor activity” and the IC50 was above 10 µM.
Regarding `N#CCc1n[nH]c(=O)c2ccccc12` [Compound 58], at hPARP-1, the IC50 came to 4.86 ± 0.63 µM and the inhibition at 10 µM was above 50%.
For the molecule `C=CCSc1nc2ccccc2c(=O)[nH]1` [Compound 67], on hPARP-1, the IC50 was above 10 µM and the “reduction in the PARPi activity” value is “at least four-fold”.
With `O=C(Nc1nc2c(c(=O)[nH]1)CCCC2)c1ccc(Cl)cc1` [Compound 32], on hPARP-1, the “decline … compared with compound 54” value was “at least three-fold”.
Take `O=c1[nH]nc(-c2ccccc2)c2ccccc12` [Compound 56]: on hPARP-1, the IC50 stood at 6.61 ± 2.09 µM and the inhibition at 10 µM is above 50%.
With `O=C(Nc1nc2c(c(=O)[nH]1)CCCC2)c1ccc(F)cc1` [Compound 54], on hPARP-1, the IC50 stood at 4.56 µM, the inhibition at 10 µM was above 50% and the “PARPi activity at the enzyme level compared to the OLP core structure phthalazin-1(2H)-one” value is recorded as “two-fold higher”.
In the case of `C#CCSc1nc2ccccc2c(=O)[nH]1` [Compound 68], at hPARP-1, the IC50 is above 10 µM and the “reduction in the PARPi activity” value is recorded as “at least four-fold”.
Take `CSc1nc2ccc([N+](=O)[O-])cc2c(=O)[nH]1` [Compound 65]: on hPARP-1, the “hPARP-1 inhibitor activity compared with compound 57 (SAR, in words)” value is listed as “dramatic decrease in activity” and the half-inhibitory concentration (IC50) is above 10 µM.
For the molecule `CSc1nc2ccccc2c(=O)[nH]1` [Compound 57, 2-(methylthio)quinazolin-4(3H)-one], at hPARP-1, the IC50 was 2.3 µM and 2.32 µM; the inhibition at 10 µM is above 50%; the “PARPi activity at the enzyme level compared to the OLP core structure phthalazin-1(2H)-one” value is listed as “five-fold higher”. Also, the “fold higher hPARP-1-inhibiting activity compared to core structure quinazolin-4(3H)-one” value at hPARP-1 (own IC50 vs literature IC50 5.8 µM) amounted to 2.5 fold. Moreover, the “cytotoxic activity as a monotherapy against MDA-MB-468” value with MDA-MB-468 cells (72 h) is on record as “such an effect was not observed”. In the data set on MDA-MB-468 cells (co-treatment at IC10 (100 µM compound 57), 72 h), the “synergistic improvement of the TMZ activity by co-treatment” value is on record as “did not induce a synergistic improvement”. In the data set with BT-474 cells (BT-474 cells, 72 h), the “IC10 (CV cytotoxicity assay)” value is on record as 100 µM. In addition, the “displacement of PARPi-FL from nuclear hPARP-1 (fluorescence)” value on hPARP-1 in BT-474 cells is listed as “failed to reach the nuclei of BT-474 cells; also recorded: did not impact the fluorescent appearance of the stain”.
On to `COc1cc2nc(SC)[nH]c(=O)c2cc1OC` [Compound 64], for which, at hPARP-1, the “hPARP-1 inhibitor activity compared with compound 57 (SAR, in words)” value is recorded as “dramatic decrease in activity” and the IC50 is above 10 µM.
With `Cn1nnc2c(C(N)=O)ncn2c1=O` [TMZ, temozolomide], the IC50 in the data set on MDA-MB-468 cells (Homo sapiens, MDA-MB-468, 72 h, read-out: IC50 of TMZ, alone or combined) was determined as 2060 ± 790 µM; in the data set on 184B5 cells, 980 ± 820 µM; with BT-474 cells (Homo sapiens, BT-474, 72 h, read-out: IC50 of TMZ, alone or combined), 2210 ± 10 µM; in the data set on HCC1937 cells, 3740 ± 1500 µM; in the data set on MCF-7 cells, 3440 ± 1720 µM.
In the case of `CSc1nc2ccccc2c(=O)n1Cc1ccccc1` [Compound 63], on hPARP-1, the “hPARP-1 inhibitor activity compared with compound 57 (SAR, in words)” value was “complete abolishment of hPARP-1 inhibitor activity” and the IC50 was above 10 µM.
